Data reported in patent US9241913B2, “Polysialic acid-based N-trimethyl chitosan gel nanoparticles for systemic drug delivery” (Syracuse University, priority 2011, dated 2016).

Assays:
[1] = system: MH7A rheumatoid arthritis synovial fibroblast cell line; assay: WST-8 cytotoxicity assay; type: cell-based; conditions: MH7A cells, 24 hours incubation, WST-8 absorbance at 450 nm
Description: WST-8 assay (Cayman Chemical Company, Ann Arbor, Mich.) was conducted on the MH7A rheumatoid arthritis synovial fibroblast cell line, following the manufacturer's instructions, to assess the cytotoxicity of the PSA-TMC nanoparticles. NADH produced within the mitochondria reduces WST-8 tetrazolium salt to formazan dye, which can be quantified by absorbance measurements at 450 nm. Cells were seeded into 96-well cell culture plate (2×10^4 cells per well) and cultured for 24 hr at 37° C., 5% CO2. PSA-TMC (0.5:1) was added to yield a series of concentrations from 0.3125 to ˜20 mg/mL, and the cultures were incubated for an additional 24 hours. 10 μL of WST-8 solution were added to each well. After a 90 minute incubation period, absorbance was measured with a Synergy 2 multimode microplate reader (BioTek Instruments, Winooski, Vt.) at 450 nm. The cytotoxicities of TMC TPP and alone were also evaluated following the above procedure. Untreated MH7A synovial fibroblast cultures were used as controls. Relative absorbance versus concentration was plotted for each set of additives, and a four parameter logistic, constructed with Kaleidagraph software, was used to fit the data to determine the IC50 values. Each experiment was repeated independently at least two times.

[2] = orally administered, patients; cited from earlier work
[3] = system: rheumatoid arthritis; conditions: cited from earlier work

SMILES	IC50 [1] [µg/mL]	elimination half-lives [2]	reduction in the risk of early mortality ([3]; RA patients treated with methotrexate) [%]	reduction in deaths due to RA related cardiovascular disease ([3]; individuals prescribed methotrexate) [%]	patients who developed severe fibrosis or cirrhosis ([3]; over 55 months of treatment, rheumatoid arthritis) [%]
O=P(O)(O)OP(=O)(O)OP(=O)(O)O [TPP, sodium tripolyphosphate]	220 ± 40	–	–	–	–
CN(Cc1cnc2nc(N)nc(N)c2n1)c1ccc(C(=O)N[C@@H](CCC(=O)O)C(=O)O)cc1 [methotrexate, Methotrexate]	–	six to fifty-five	60	70	3
